Source: patent US7994196B2, “Indazole compound and pharmaceutical use thereof” (Mitsubishi Tanabe Pharma Corporation, priority 2004, dated 2011)
pIC50: −log10 of the molar value.

Each compound was assayed on MMP-9 production (assay: Determination of MMP-9 Production Inhibitory Activity (PMA-stimulated HEC3 cells, gelatin zymography)). Conditions: Homo sapiens, Endothelial cell, 24 h, immortalized human vascular endothelial cells HEC3, PMA 10^-7 M stimulation, test substance at 10, 2, 0.4 and 0.08 μM, read-out: IC50 (MMP-9 production inhibitory rate).
Assay type: cell-based
Method: Immortalized human vascular endothelial cells HEC3 (supplied by Prof. Iijima of Nagoya University) were subcultured in RPMI1640 medium (Sigma Ltd.) containing 10% fetal calf serum.
The HEC3 cells (5×10^4 cells/well) were plated on a 24-well plate, and cultured in RPMI1640 medium containing 10% fetal calf serum for 24 hr. Each well was washed once with serum-free RPMI1640 medium. Then, RPMI1640 medium (250 μl/well) containing 0.05% fetal calf serum was added to each well, and the cells were further cultured for 2 hr.
The supernatant was removed, and the test substances (Example compounds shown in Table 1) diluted to various concentrations were added and incubated for 1 hr in 0.05% serum-containing RPMI1640 medium and the supernatant was removed again. A medium containing a test substance having the same concentration as in the pre-treatment and PMA (10^−7 M), which is a stimulant, was added at 250 μl/well, and the cells were further cultured for 24 hr.
After completion of the culture, water (50 μl) and 25 μl of SDS buffer (240 mM Tris-HCl (pH 6.8), 8% SDS, 40% glycerol) were added to the culture supernatant (25 μl), and the mixture (10 μl) was electrophoresed on a 7.5% polyacrylamide gel containing 0.1% gelatin.
After the electrophoresis, the gel was washed with Tris-HCl buffer (pH 7.5) containing 0.5% Triton X-100 (Sigma Ltd.) for 1 hr. The gel was immersed in an activation buffer (150 mM NaCl, 50 mM Tris-HCl (pH 7.5), 10 mM CaCl2) at 37° C. for 18 hr to activate MMP-9, and then stained with CBB. The obtained MMP-9 band was converted to numerical values by a densitometer (ATTO. Ltd.).
The MMP-9 production inhibitory rate by the test substance was calculated by the following equation. MMP-9 production inhibitory rate=100−100×{(test substance addition value−non-stimulation value)/(PMA stimulation value−non-stimulation value)}
The MMP-9 production inhibitory rates of the test substance at 10, 2, 0.4 and 0.08 μM were calculated, and IC50 value of the each test substance was determined using an analysis soft (RegExcel).
With `O=C(Nc1n[nH]c2ccccc12)N1CCN(c2ccc(Cl)c(Cl)c2)CC1` [Ex. 98, 4-(3,4-dichlorophenyl)-1-piperazinecarboxylic acid (1H-indazol-3-yl)amide] the pIC50 was 6.66. `O=C(Nc1n[nH]c2ccccc12)N1CCN(c2cc(C(F)(F)F)ccc2Cl)CC1` [Ex. 99, 4-[2-chloro-5-(trifluoromethyl)phenyl]-1-piperazinecarboxylic acid (1H-indazol-3-yl)amide] gave a pIC50 of 6.21. For `O=C(Nc1n[nH]c2ccccc12)N1CCN(c2cccc(C(F)(F)F)c2)CC1` [Ex. 100, 4-[3-(trifluoromethyl)phenyl]-1-piperazinecarboxylic acid (1H-indazol-3-yl)amide], the pIC50 was 6.64. In the case of `O=C(Nc1n[nH]c2ccccc12)N1CCc2c(c(=O)oc3ccccc23)C1` [Ex. 103, 5-oxo-1,5-dihydro-2H-chromeno[3,4-c]pyridine-3-carboxylic acid (1H-indazol-3-yl)amide], the pIC50 was 7.22. With `O=C(Nc1n[nH]c2ccccc12)N1CCc2c(c(=O)[nH]c3ccccc23)C1` [Ex. 104, 5-oxo-1,4,5,6-tetrahydrobenzo[c]-2,7-naphthyridine-3-carboxylic acid (1H-indazol-3-yl)amide] the pIC50 was 8.00. For `O=C(Nc1n[nH]c2ccccc12)N1CCn2c(nc3ccccc32)C1` [Ex. 105, 3,4-dihydropyrazino[1,2-a]benzimidazole-2-carboxylic acid (1H-indazol-3-yl)amide], the pIC50 was 7.40. For `CN(C)CC1c2[nH]c3ccccc3c2CCN1C(=O)Nc1n[nH]c2ccccc12` (stereo not drawn) [Ex. 108, 1-[(dimethylamino)methyl]-1,3,4,9-tetrahydro-β-carboline-2-carboxylic acid (1H-indazol-3-yl)amide], the pIC50 was 6.17. Compound `O=C(Nc1n[nH]c2ccccc12)N1CCc2c([nH]c(=O)c3ccccc23)C1` [Ex. 109, 6-oxo-1,4,5,6-tetrahydrobenzo[c]-1,7-naphthyridine-3-carboxylic acid (1H-indazol-3-yl)amide] has a pIC50 of 6.85. Compound `O=C(Nc1n[nH]c2ccccc12)N1CCC(c2cccc(C(F)(F)F)c2)CC1` [Ex. 112, 4-[3-(trifluoromethyl)phenyl]piperidine-1-carboxylic acid (1H-indazol-3-yl)amide] has a pIC50 of 6.15. `CC1CN(C(=O)Nc2n[nH]c3ccccc23)CCN1c1ccc(Cl)c(C(F)(F)F)c1` (stereo not drawn) [Ex. 117] gave a pIC50 of 6.03. Compound `O=C(Nc1n[nH]c2ccccc12)N1CCC(F)(c2ccc(Cl)c(C(F)(F)F)c2)CC1` [Ex. 123, 4-[4-chloro-3-(trifluoromethyl)phenyl]-4-fluoropiperidine-1-carboxylic acid (1H-indazol-3-yl)amide] has a pIC50 of 6.14. `Cc1ccc(F)c(C2(O)CCN(C(=O)Nc3n[nH]c4ccccc34)CC2)c1` [Ex. 130, 4-(2-fluoro-5-methylphenyl)-4-hydroxy-1-piperidinecarboxylic acid (1H-indazol-3-yl)amide] showed a pIC50 of 6.21. For `Cc1c(Cl)cccc1C1(O)CCN(C(=O)Nc2n[nH]c3ccccc23)CC1` [Ex. 131, 4-(3-chloro-2-methylphenyl)-4-hydroxy-1-piperidinecarboxylic acid (1H-indazol-3-yl)amide], the pIC50 was 6.36. Work on `Cc1ccc(C2(O)CCN(C(=O)Nc3n[nH]c4ccccc34)CC2)cc1Cl` [Ex. 132, 4-(3-chloro-4-methylphenyl)-4-hydroxy-1-piperidinecarboxylic acid (1H-indazol-3-yl)amide] yielded a pIC50 of 6.41. With `Cc1c(F)cccc1C1(O)CCN(C(=O)Nc2n[nH]c3ccccc23)CC1` [Ex. 134, 4-(3-fluoro-2-methylphenyl)-4-hydroxy-1-piperidinecarboxylic acid (1H-indazol-3-yl)amide] the pIC50 was 6.17. For `Cc1ccc(F)cc1C1(O)CCN(C(=O)Nc2n[nH]c3ccccc23)CC1` [Ex. 135, 4-(5-fluoro-2-methylphenyl)-4-hydroxy-1-piperidinecarboxylic acid (1H-indazol-3-yl)amide], the pIC50 was 6.31. Work on `Cc1cc(C2(O)CCN(C(=O)Nc3n[nH]c4ccccc34)CC2)ccc1F` [Ex. 136, 4-(4-fluoro-3-methylphenyl)-4-hydroxy-1-piperidinecarboxylic acid (1H-indazol-3-yl)amide] yielded a pIC50 of 6.39. `Cc1cc(F)cc(C2(O)CCN(C(=O)Nc3n[nH]c4ccccc34)CC2)c1` [Ex. 138, 4-(3-fluoro-5-methylphenyl)-4-hydroxy-1-piperidinecarboxylic acid (1H-indazol-3-yl)amide] gave a pIC50 of 7.00. Work on `Cc1ccc(C)c(C2(O)CCN(C(=O)Nc3n[nH]c4ccccc34)CC2)c1` [Ex. 139, 4-(2,5-dimethylphenyl)-4-hydroxy-1-piperidinecarboxylic acid (1H-indazol-3-yl)amide] yielded a pIC50 of 6.35. In the case of `Cc1c(C(F)(F)F)cccc1C1(O)CCN(C(=O)Nc2n[nH]c3ccccc23)CC1` [Ex. 140, 4-hydroxy-4-[2-methyl-3-(trifluoromethyl)phenyl]-1-piperidinecarboxylic acid (1H-indazol-3-yl)amide], the pIC50 was 6.21. With `Cc1ccc(C(F)(F)F)cc1C1(O)CCN(C(=O)Nc2n[nH]c3ccccc23)CC1` [Ex. 141, 4-hydroxy-4-[2-methyl-5-(trifluoromethyl)phenyl]-1-piperidinecarboxylic acid (1H-indazol-3-yl)amide] the pIC50 was 6.49. `Cc1ccc(C2(O)CCN(C(=O)Nc3n[nH]c4ccccc34)CC2)cc1C` [Ex. 142, 4-(3,4-dimethylphenyl)-4-hydroxy-1-piperidinecarboxylic acid (1H-indazol-3-yl)amide] gave a pIC50 of 6.40. `Cc1cc(C)cc(C2(O)CCN(C(=O)Nc3n[nH]c4ccccc34)CC2)c1` [Ex. 143, 4-(3,5-dimethylphenyl)-4-hydroxy-1-piperidinecarboxylic acid (1H-indazol-3-yl)amide] showed a pIC50 of 6.55. Work on `Cc1cccc(C2(O)CCN(C(=O)Nc3n[nH]c4ccccc34)CC2)c1C` [Ex. 144, 4-(2,3-dimethylphenyl)-4-hydroxy-1-piperidinecarboxylic acid (1H-indazol-3-yl)amide] yielded a pIC50 of 6.19.
